# According to the Deep4Chem optical property database:
# Assay: photoluminescence quantum yield (fraction); solvent given as SMILES
structure (smiles),measurement,setting,value
c1ccc(-c2cc(-c3ccc(N4c5ccccc5C(c5ccccc5)(c5ccccc5)c5ccccc54)cc3)nc(-c3ccccc3)n2)cc1,photoluminescence quantum yield,in O=P(c1ccccc1)(c1ccccc1)c1ccccc1Oc1ccccc1P(=O)(c1ccccc1)c1ccccc1,0.7
Oc1ccc2ccccc2c1C1Nc2cccc3cccc(c23)N1,photoluminescence quantum yield,in CC#N,0.03
same,photoluminescence quantum yield,in CO,0.03
same,photoluminescence quantum yield,in CS(C)=O,0.14
same,photoluminescence quantum yield,in Cc1ccccc1,0.33
CCN1c2ccc(C3=CC(c4ccccc4)=[O+][B-](F)(F)O3)cc2Sc2cc(C3=CC(c4ccccc4)=[O+][B-](F)(F)O3)ccc21,photoluminescence quantum yield,in ClCCl,0.46
CC(=O)c1ccc(-c2cnc3nn4ccccc4c3n2)cc1,photoluminescence quantum yield,in C1CCOC1,0.5
CC1(C)C(/C=C/c2cc3ccc(O)cc3oc2=O)=[N+](CCCS(=O)(=O)[O-])c2ccc(S(=O)(=O)O)cc21,photoluminescence quantum yield,in CCO,0.031
same,photoluminescence quantum yield,in CS(C)=O,0.012
same,photoluminescence quantum yield,in O,0.013
CC(C)[Si]1(C(C)C)c2cc(C=O)ccc2-c2ccc(N(c3ccccc3)c3ccccc3)cc21,photoluminescence quantum yield,in C1CCCCC1,0.5
same,photoluminescence quantum yield,in CC#N,0.48
same,photoluminescence quantum yield,in CCO,0.11
same,photoluminescence quantum yield,in CCOCC,0.76
same,photoluminescence quantum yield,in CS(C)=O,0.58
same,photoluminescence quantum yield,in ClCCl,0.8
same,photoluminescence quantum yield,in c1ccccc1,0.77
COCCC1(CCOC)c2cc(-c3ccc(OC)cc3)ccc2-c2ccc(-c3ccc4c(c3)C(CCOC)(CCOC)c3cc(-c5ccc(OC)cc5)ccc3-4)cc21,photoluminescence quantum yield,in CN(C)C=O,0.95
COc1ccc2c(C#N)cc3ccc4cc(C#N)c5ccc(OC)cc5c4c3c2c1,photoluminescence quantum yield,in ClC(Cl)Cl,0.1
CN(C)c1ccc2nc(/C=C/c3ccccc3)c(=O)oc2c1,photoluminescence quantum yield,in C1CCCCC1,0.77
same,photoluminescence quantum yield,in C1COCCO1,0.79
same,photoluminescence quantum yield,in CC#N,0.54
same,photoluminescence quantum yield,in CC(C)=O,0.71
same,photoluminescence quantum yield,in CCCCCCC,0.74
same,photoluminescence quantum yield,in CCO,0.55
same,photoluminescence quantum yield,in CCOC(C)=O,0.75
same,photoluminescence quantum yield,in CN(C)C=O,0.66
same,photoluminescence quantum yield,in CS(C)=O,0.61
same,photoluminescence quantum yield,in Cc1ccccc1,0.77
same,photoluminescence quantum yield,in ClC(Cl)Cl,0.81
same,photoluminescence quantum yield,in ClCCl,0.81
O=C(O)CCCc1cc(C#Cc2ccccc2)c2ccc3c(C#Cc4ccccc4)cc(C#Cc4ccccc4)c4ccc1c2c34,photoluminescence quantum yield,in CS(C)=O,0.72
same,photoluminescence quantum yield,in ClC(Cl)(Cl)Cl,0.56
c1ccc(N(c2ccccc2)c2ccc3c4cccc5c(N(c6ccccc6)c6ccccc6)ccc(c6cccc2c63)c54)cc1,photoluminescence quantum yield,in ClCCl,0.65
CCOC(=O)c1c2c3c(cccc3c3cc4c(cc13)[Si](C)(C)O[Si]4(C)C)N(C)C2=O,photoluminescence quantum yield,in CC#N,0.51
c12c3c4c5c1c1c6c7c2c2c8c3c3c9c4c4c%10c5c5c1c1c6c6c%11c%12c%13c%14c%15c%16c%17c%14c%14c%18c%13c%11c1c1c5c%10c5c(c%14c%10c%17c%11c%13c%16c%14c%16c%15c%12c%12c%16c(c2c7c%126)c2c8c3c(c%13c%142)c2c9c4c5c%10c%112)c%181,photoluminescence quantum yield,in CC1CCCCC1,0.0006
c1ccc(Nc2nc(Nc3ccccc3)nc(Nc3cc4ccc5cccc6ccc(c3)c4c56)n2)cc1,photoluminescence quantum yield,in CC#N,0.19
same,photoluminescence quantum yield,in CCCCOCCCC,0.21
same,photoluminescence quantum yield,in CO,0.21
CC1=[N+]2C(=C(c3c4ccccc4c(-c4ccccc4)c4ccccc34)c3ccc(C)n3[B-]2(F)F)C=C1,photoluminescence quantum yield,in CC#N,0.004
same,photoluminescence quantum yield,in CCCCCC,0.773
same,photoluminescence quantum yield,in CCO,0.006
same,photoluminescence quantum yield,in CN(C)C=O,0.004
same,photoluminescence quantum yield,in Cc1ccccc1,0.141
same,photoluminescence quantum yield,in ClCCl,0.007
c1ccc2c(c1)ccc1ccc3ccc4ccc5ccccc5c4c3c12,photoluminescence quantum yield,in ClCCl,0.02
CCCCCCCCOc1ccc(C#Cc2ccc(C#Cc3ccc(OCCCCCCCC)c(OCCCCCCCC)c3)c3nc4c5ccccc5c5ccccc5c4nc23)cc1OCCCCCCCC,photoluminescence quantum yield,in C1CCOC1,0.18
same,photoluminescence quantum yield,in Cc1ccccc1,0.19
same,photoluminescence quantum yield,in ClCCl,0.33
CC1=[N+]2C(=C(c3ccc(C=O)cc3)c3ccc(C)n3[B-]2(F)F)C=C1c1cc2n(c1)[B-](F)(F)[N+]1=CC=CC1=C2c1c(C)cc(C)cc1C,photoluminescence quantum yield,in C1CCCCC1,0.92
same,photoluminescence quantum yield,in CCOC(C)=O,0.2
O=S1(=O)c2ccccc2C2(c3cc(-c4ccc(-n5c6ccccc6c6ccccc65)cc4)ccc3-c3ccc(-c4ccc(-n5c6ccccc6c6ccccc65)cc4)cc32)c2ccccc21,photoluminescence quantum yield,in ClCCl,0.81
same,photoluminescence quantum yield,in c1cc(-n2c3ccccc3c3ccccc32)cc(-n2c3ccccc3c3ccccc32)c1,0.86
CCC1=C(C)C2=C(c3ccc(-c4c5ccccc5c(-c5ccccc5)c5ccccc45)cc3)c3c(C)c(CC)c(C)n3[B-](F)(F)[N+]2=C1C,photoluminescence quantum yield,in CC#N,0.696
same,photoluminescence quantum yield,in CCCCCC,0.756
same,photoluminescence quantum yield,in CCO,0.841
same,photoluminescence quantum yield,in CN(C)C=O,0.232
same,photoluminescence quantum yield,in Cc1ccccc1,0.781
same,photoluminescence quantum yield,in ClCCl,0.744
CC(=O)Nc1ccc(C2=C/C(=C\c3ccc([N+](=O)[O-])cc3)C(=O)O2)cc1,photoluminescence quantum yield,in C1COCCO1,0.043
C(#Cc1nc2ccccc2s1)c1ccc(N(c2ccccc2)c2ccccc2)cc1,photoluminescence quantum yield,in Cc1ccccc1,0.62
C[Si]1(C)c2ccc(C#Cc3ccccc3)cc2C=Cc2cc(C#Cc3ccccc3)ccc21,photoluminescence quantum yield,in ClCCl,0.36
c1ccc(B2Nc3cc4c(cc3-c3sccc32)NB(c2ccccc2)c2ccsc2-4)cc1,photoluminescence quantum yield,in ClCCl,0.17
CC1(C)C(/C=C/C2=C(Cl)C(=C/C=C3/N(Cc4ccc(C(=O)O)cc4)c4ccccc4C3(C)C)/CCC2)=[N+](Cc2ccc(C(=O)O)cc2)c2ccccc21,photoluminescence quantum yield,in CCO,0.11
CCn1c2ccccc2sc2c(C#N)c3[nH]c4ccccc4sc3c(C#N)c21,photoluminescence quantum yield,in ClC(Cl)Cl,0.32
N#C/C(=N/Nc1ccc(C#N)cc1)c1nc(-c2ccccc2)cs1,photoluminescence quantum yield,in CC#N,0
same,photoluminescence quantum yield,in CCO,0.0001
same,photoluminescence quantum yield,in CN(C)C=O,0
same,photoluminescence quantum yield,in Cc1ccccc1,0.0001
same,photoluminescence quantum yield,in ClCCl,0.0001
c1ccc(-c2ccc(-c3cc(-c4ccccn4)nc(-c4ccccn4)c3)cc2)cc1,photoluminescence quantum yield,in ClCCl,0.18
c1ccc2cc3cc(-c4cc(-c5nccs5)nc(-c5nccs5)c4)ccc3cc2c1,photoluminescence quantum yield,in CC#N,0.564
same,photoluminescence quantum yield,in CCCCCC,0.108
same,photoluminescence quantum yield,in CO,0.194
same,photoluminescence quantum yield,in ClC(Cl)Cl,0.433
Cc1nnc(-c2ccc(-n3c4ccccc4c4ccccc43)cc2)o1,photoluminescence quantum yield,in Cc1ccccc1,0.55
CCOC(=O)c1ccc(C2CC(c3cccc4ccccc34)=NN2c2ccc(C#N)cc2)cc1 (stereo not given),photoluminescence quantum yield,in ClCCl,0.258
c1ccc(-c2c3ccccc3c(-c3ccccc3)c3cc4ccccc4cc23)cc1,photoluminescence quantum yield,in ClCCl,0.97
Cc1cc(C)c(C2=[N+]3C(=Cc4c(C)cc(C)n4[B-]3(F)F)c3ccccc32)[nH]1,photoluminescence quantum yield,in C1CCOC1,0.06
same,photoluminescence quantum yield,in CC#N,0.02
same,photoluminescence quantum yield,in CCCCCC,0.85
same,photoluminescence quantum yield,in CO,0.03
same,photoluminescence quantum yield,in Cc1ccccc1,0.81
same,photoluminescence quantum yield,in ClCCl,0.61
Cc1ccc(N/C=C/C=[NH+]c2ccc(C)cc2)cc1,photoluminescence quantum yield,in CS(C)=O,0.14
c1ccc(-c2nc(-c3ccccc3)c(-c3ccccc3)[nH]2)cc1,photoluminescence quantum yield,in CC#N,0.27
same,photoluminescence quantum yield,in CO,0.27
CCOC(=O)c1cc(C(=O)OCC)c2cc(N)ccc2n1,photoluminescence quantum yield,in CCO,0.4
CC(C)(C)c1cc(-c2c3cccc4c5cccc6c(-c7cc(C(C)(C)C)cc(C(C)(C)C)c7)c7cccc8c9cccc2c9c(c34)c(c65)c78)cc(C(C)(C)C)c1,photoluminescence quantum yield,in Cc1ccccc1,0.81
CC(=O)c1c(N[C@@H](CC(C)C)C(=O)O)c2ccc(N(C)C)cc2oc1=O,photoluminescence quantum yield,in ClCCl,0.0027
CN(C)c1ccc(C2=Nc3scc(-c4ccc(N(C)C)cc4)[n+]3[B-](F)(F)O2)cc1,photoluminescence quantum yield,in C1CCOC1,0.01
same,photoluminescence quantum yield,in CC#N,0
same,photoluminescence quantum yield,in Cc1ccccc1,0.66
same,photoluminescence quantum yield,in ClCCl,0.04
COC(=O)c1ccc(C2=C3C=CC(C)=[N+]3[B-](F)(F)n3c(C)ccc32)cc1,photoluminescence quantum yield,in C1CCCCC1,0.073
same,photoluminescence quantum yield,in C1CCOC1,0.056
same,photoluminescence quantum yield,in CC#N,0.039
same,photoluminescence quantum yield,in CCOC(C)=O,0.053
same,photoluminescence quantum yield,in CO,0.032
same,photoluminescence quantum yield,in Cc1ccccc1,0.12
same,photoluminescence quantum yield,in ClC(Cl)Cl,0.095
CCOC(=O)COc1ccc(/C=C/C2=C3C(C)=CC(/C=C/c4ccc(OCC(=O)OCC)cc4)=[N+]3[B-](F)(F)n3c2c2ccccc2c3-c2[nH]c(C)cc2C)cc1,photoluminescence quantum yield,in ClCCl,0.01
N#Cc1c(-n2c3ccc(Br)cc3c3cc(Br)ccc32)c(-n2c3ccc(Br)cc3c3cc(Br)ccc32)c(C#N)c(-n2c3ccc(Br)cc3c3cc(Br)ccc32)c1-n1c2ccc(Br)cc2c2cc(Br)ccc21,photoluminescence quantum yield,in Cc1ccccc1,0.45
COc1cccc2cc(C)c3c4ccccc4n(C)c3c12,photoluminescence quantum yield,in ClCCl,0.215
c1ccc(-c2cc3cccc4cc(-c5ccccc5)c5cc(-c6cc7[b-]8c(c6)c(-c6ccccc6)cc6cccc(cc7-c7ccccc7)[n+]86)cc2[b-]5[n+]34)cc1,photoluminescence quantum yield,in C1CCCCC1,0.12
CCc1ccc(-c2ccc(-c3nnc(-c4ccc(-c5nnc(-c6ccc(-c7ccc(CC)cc7)s6)o5)cc4)o3)s2)cc1,photoluminescence quantum yield,in ClC(Cl)Cl,0.6
Oc1ccccc1/C=N/c1cc2nc3ccccc3nc2cc1/N=C/c1ccccc1O,photoluminescence quantum yield,in CC#N,0.34
COc1cc(C2=c3c(c4ccc(C(C)(C)C)cc4c4cc(C(C)(C)C)ccc34)=[N+]3C2=Nc2c(-c4cc(OC)c(OC)c(OC)c4)c4c5ccc(C(C)(C)C)cc5c5cc(C(C)(C)C)ccc5c4n2[B-]3(F)F)cc(OC)c1OC,photoluminescence quantum yield,in Cc1ccccc1,0.01
c1ccc2nc3c(nc2c1)[nH]c1ccccc13,photoluminescence quantum yield,in C1COCCO1,0.04
same,photoluminescence quantum yield,in CC#N,0.05
same,photoluminescence quantum yield,in CCCCCCC,0.02
same,photoluminescence quantum yield,in CCO,0.01
CC(O)CC1=N/C(=C\c2cccc(N(C)C)c2)C(=O)N1C (stereo not given),photoluminescence quantum yield,in C1CCOC1,0.11
same,photoluminescence quantum yield,in CC#N,0.03
same,photoluminescence quantum yield,in CCCCCC,0.37
COc1ccc(NC(=O)C(C(=O)Nc2ccc(OC)cc2)C(c2ccccc2O)c2c(C)[nH]c3ccccc23)cc1 (stereo not given),photoluminescence quantum yield,in CO,0.0094
same,photoluminescence quantum yield,in CS(C)=O,0.013
CC1=C(C2=C(C)C(C)=[N+]3C2=Cc2cc(C)c(C)n2[B-]3(F)F)C2=Cc3cc(C)c(C)n3[B-](F)(F)[N+]2=C1C,photoluminescence quantum yield,in ClCCl,0.05
Cc1ccc(/C=C/c2nc(-c3cccc([N+](=O)[O-])c3)[nH]c2/C=C/c2ccc(C)cc2)cc1,photoluminescence quantum yield,in ClCCl,0
CCCCCc1c(C)c2c3ccccc3[nH]c2c2ccccc12,photoluminescence quantum yield,in ClCCl,0.167
